According to US11702422B2, “Imidazopyridazines as modulators of IL-17” (Janssen Pharmaceutica NV, priority 2020, dated 2023):

Experiments:
[1] = biological target: IL-17A(FLAG-Tagged): IL-17RA(His-Tagged) (Homo sapiens, UniProt Q16552, K93Q); test: IL-17A(FLAG-Tagged): IL-17RA(His-Tagged) Binding Disruption Eu-HTRF Assay; conditions: IL-17A/IL-17RA binding disruption, simple average if tested more than once
In short: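 IC50 comes from a one-site competition fit of the HTRF 665/620 nm ratio. Compound dilutions (2-fold, 22 points) were held 1 h rt with FLAG-tagged IL-17A dimer, then His-tagged IL-17RA plus Eu-cryptate anti-FLAG and D2 anti-His antibodies were added for 2 h rt.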

[2] = test system: IL-17A-induced G-CSF production in human normal keratinocyte (NHK); test: NHK Assay: IL-17A-induced G-CSF production in human normal keratinocytes; assay type: cell-based; conditions: adult normal human keratinocytes, IL-17A 5 ng/mL, 24 h, simple average if tested more than once
In short: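 Titrated compound plus recombinant human IL-17A (pre-incubated 1 h, rt) were applied to adult human keratinocytes at 5 ng/mL cytokine, 0.2% DMSO. Cultures ran 24 h at 37° C, and supernatant G-CSF was measured by HTRF to derive IC50.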

Sequence of UniProt Q16552 (Q16552 with tags, fused parts or gaps K93Q): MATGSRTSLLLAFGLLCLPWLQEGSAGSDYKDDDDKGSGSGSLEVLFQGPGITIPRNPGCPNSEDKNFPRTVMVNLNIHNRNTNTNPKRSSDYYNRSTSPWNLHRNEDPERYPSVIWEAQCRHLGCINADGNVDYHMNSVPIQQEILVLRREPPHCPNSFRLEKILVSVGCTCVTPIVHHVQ

Compound | IC50 [1] | IC50 [2] | IC50 ([2]; Homo sapiens, Keratinocyte)
CC(C)n1nccc1C(=O)N[C@H](c1cn2ncc(C(NC(=O)CC(C)(C)O)C3CC3)cc2n1)C1CCC(F)(F)CC1 (single isomer, unassigned) [Example 137, N—((S)-(7-((S*)-Cyclopropyl(3-hydroxy-3-methylbutanamido)methyl)imidazo[1,2-b]pyridazin-2-yl)(4,4-difluorocyclohexyl)methyl)-1-isopropyl-1H-pyrazole-5-carboxamide] | 14000 nM | > 20000 nM | 
CC(C)n1nccc1C(=O)N[C@H](c1cn2ncc([C@@H](NC(=O)C[C@H]3CC3(F)F)C3CC3)cc2n1)C1CCC(F)(F)CC1 (single isomer, unassigned) [Example 138] | 780 nM |  | 1300 nM
CC(C)n1nccc1C(=O)N[C@H](c1cn2ncc([C@@H](NC(=O)C[C@@H]3CC3(F)F)C3CC3)cc2n1)C1CCC(F)(F)CC1 (single isomer, unassigned) [Example 139] | 730 nM |  | 690 nM
CC(C)n1nccc1C(=O)N[C@H](c1cn2ncc([C@H](NC(=O)C[C@H]3CC3(F)F)C3CC3)cc2n1)C1CCC(F)(F)CC1 (single isomer, unassigned) [Example 140] | 70 nM |  | 89 nM
CC(C)n1nccc1C(=O)N[C@H](c1cn2ncc([C@H](NC(=O)C[C@@H]3CC3(F)F)C3CC3)cc2n1)C1CCC(F)(F)CC1 (single isomer, unassigned) [Example 141] | 130 nM |  | 200 nM
CC(C)C(NC(=O)CCC(F)(F)F)c1cnn2cc([C@@H](NC(=O)c3ccnn3C(C)C)C3CCC(F)(F)CC3)nc2c1 (single isomer, unassigned) [Example 154, N—((S)-(4,4-Difluorocyclohexyl)(7-((R*)-2-methyl-1-(4,4,4-trifluorobutanamido)propyl)imidazo[1,2-b]pyridazin-2-yl)methyl)-1-isopropyl-1H-pyrazole-5-carboxamide] | 430 nM | 640 nM | 
CC(C)C(NC(=O)CCC(F)(F)F)c1cnn2cc([C@@H](NC(=O)c3ccnn3C(C)C)C3CCC(F)(F)CC3)nc2c1 (single isomer, unassigned) [Example 155, N—((S)-(4,4-Difluorocyclohexyl)(7-((S*)-2-methyl-1-(4,4,4-trifluorobutanamido)propyl)imidazo[1,2-b]pyridazin-2-yl)methyl)-1-isopropyl-1H-pyrazole-5-carboxamide] | 130 nM | 53 nM | 
Cc1nonc1C(=O)N[C@H](c1cn2ncc([C@H](NC(=O)CC(C)C(F)(F)F)C3CC3)cc2n1)C1CCC(F)(F)CC1 (single isomer, unassigned) [Example 243, N—((S)-(7-((R)-Cyclopropyl((R*)-4,4,4-trifluoro-3-methylbutanamido)methyl)imidazo[1,2-b]pyridazin-2-yl)(4,4-difluorocyclohexyl)methyl)-4-methyl-1,2,5-oxadiazole-3-carboxamide] | 89 nM |  | 270 nM
CC(C)n1nccc1C(=O)N[C@H](c1cn2ncc([C@H](NC(=O)C[C@H]3C[C@@H](F)C3)C3CC3)cc2n1)C1CCC(F)(F)CC1 (single isomer, unassigned) [Example 257] | 110 nM |  | 120 nM
CC(C)n1nccc1C(=O)N[C@H](c1cn2ncc([C@H](NC(=O)C[C@H]3C[C@H](F)C3)C3CC3)cc2n1)C1CCC(F)(F)CC1 (single isomer, unassigned) [Example 258] | 130 nM |  | 46 nM
Cc1nonc1C(=O)N[C@H](c1cn2ncc([C@H](NC(=O)CC(C)C(F)F)C3CC3)cc2n1)C1CCC(F)(F)CC1 (single isomer, unassigned) [Example 264, N—((S)-(7-((R)-Cyclopropyl((R*)-4,4-difluoro-3-methylbutanamido)methyl)imidazo[1,2-b]pyridazin-2-yl)(4,4-difluorocyclohexyl)methyl)-4-methyl-1,2,5-oxadiazole-3-carboxamide] | 48 nM | 350 nM | 
Cc1nonc1C(=O)N[C@H](c1cn2ncc([C@H](NC(=O)CC(C)C(F)F)C3CC3)cc2n1)C1CCC(F)(F)CC1 (single isomer, unassigned) [Example 265, N—((S)-(7-((R)-Cyclopropyl((S*)-4,4-difluoro-3-methylbutanamido)methyl)imidazo[1,2-b]pyridazin-2-yl)(4,4-difluorocyclohexyl)methyl)-4-methyl-1,2,5-oxadiazole-3-carboxamide] | 210 nM | 1100 nM | 
Cc1nonc1C(=O)N[C@H](c1cn2ncc([C@H](NC(=O)C[C@H]3C[C@H](F)C3)C3CC3)cc2n1)C1CCC(F)(F)CC1 (single isomer, unassigned) [Example 266] | 56 nM |  | 290 nM
Cc1nonc1C(=O)N[C@H](c1cn2ncc([C@H](NC(=O)C[C@H]3C[C@@H](F)C3)C3CC3)cc2n1)C1CCC(F)(F)CC1 (single isomer, unassigned) [Example 267] | 87 nM |  | 350 nM
CC(C)n1nccc1C(=O)N[C@H](c1cn2ncc([C@H](NC(=O)CCC3CC3(F)F)C3CC3)cc2n1)C1CCC(F)(F)CC1 (single isomer, unassigned) [Example 270, N—((S)-(7-((R)-Cyclopropyl(3-((R*)-2,2-difluorocyclopropyl)propanamido)methyl)imidazo[1,2-b]pyridazin-2-yl)(4,4-difluorocyclohexyl)methyl)-1-isopropyl-1H-pyrazole-5-carboxamide] | 150 nM |  | 38 nM
CC(C)n1nccc1C(=O)N[C@H](c1cn2ncc([C@H](NC(=O)CCC3CC3(F)F)C3CC3)cc2n1)C1CCC(F)(F)CC1 (single isomer, unassigned) [Example 271, N—((S)-(7-((R)-Cyclopropyl(3-((S*)-2,2-difluorocyclopropyl)propanamido)methyl)imidazo[1,2-b]pyridazin-2-yl)(4,4-difluorocyclohexyl)methyl)-1-isopropyl-1H-pyrazole-5-carboxamide] | 140 nM | 67 nM | 
CC(CC(=O)N[C@@H](c1cnn2cc([C@@H](NC(=O)c3conc3OCC(F)F)C3CCC(F)(F)CC3)nc2c1)C1CC1)C(F)(F)F (single isomer, unassigned) [Example 298, N—((S)-(7-((R)-Cyclopropyl((R*)-4,4,4-trifluoro-3-methylbutanamido)methyl)imidazo[1,2-b]pyridazin-2-yl)(4,4-difluorocyclohexyl)methyl)-3-(2,2-difluoroethoxy)isoxazole-4-carboxamide] | 250 nM |  | 610 nM
CC(CC(=O)N[C@@H](c1cnn2cc([C@@H](NC(=O)c3conc3OCC(F)F)C3CCC(F)(F)CC3)nc2c1)C1CC1)C(F)(F)F (single isomer, unassigned) [Example 299, N—((S)-(7-((R)-Cyclopropyl((S*)-4,4,4-trifluoro-3-methylbutanamido)methyl)imidazo[1,2-b]pyridazin-2-yl)(4,4-difluorocyclohexyl)methyl)-3-(2,2-difluoroethoxy)isoxazole-4-carboxamide] | 300 nM | 840 nM | 
CC(CC(=O)N[C@@H](c1cnn2cc([C@@H](NC(=O)c3nonc3C3CC3)C3CCC(F)(F)CC3)nc2c1)C1CC1)C(F)(F)F (single isomer, unassigned) [Example 300, 4-Cyclopropyl-N—((S)-(7-((R)-cyclopropyl((R*)-4,4,4-trifluoro-3-methylbutanamido)methyl)imidazo[1,2-b]pyridazin-2-yl)(4,4-difluorocyclohexyl)methyl)-1,2,5-oxadiazole-3-carboxamide] | 110 nM | 320 nM | 
CC(CC(=O)N[C@@H](c1cnn2cc([C@@H](NC(=O)c3nonc3C3CC3)C3CCC(F)(F)CC3)nc2c1)C1CC1)C(F)(F)F (single isomer, unassigned) [Example 301, 4-Cyclopropyl-N—((S)-(7-((R)-cyclopropyl((S*)-4,4,4-trifluoro-3-methylbutanamido)methyl)imidazo[1,2-b]pyridazin-2-yl)(4,4-difluorocyclohexyl)methyl)-1,2,5-oxadiazole-3-carboxamide] | 53 nM | 56 nM | 
CC(C)n1nccc1C(=O)N[C@H](c1cn2ncc([C@H](NC(=O)CO[C@@H](C)C(F)(F)F)C3CC3)cc2n1)C1CCC(F)(F)CC1 (single isomer, unassigned) [Example 310] | 170 nM |  | 220 nM
CC(C)n1nccc1C(=O)N[C@H](c1cn2ncc([C@H](NC(=O)CO[C@H](C)C(F)(F)F)C3CC3)cc2n1)C1CCC(F)(F)CC1 (single isomer, unassigned) [Example 311] | 210 nM |  | 330 nM
Cc1nonc1C(=O)N[C@@H](COC(C)(C)C)c1cn2ncc(C(NC(=O)CCC(F)(F)F)C3CC3)cc2n1 (single isomer, unassigned) [Example 314, N—((R)-2-(tert-Butoxy)-1-(7-((R*)-cyclopropyl(4,4,4-trifluorobutanamido)methyl)imidazo[1,2-b]pyridazin-2-yl)ethyl)-4-methyl-1,2,5-oxadiazole-3-carboxamide] | 560 nM | 2100 nM | 
Cc1nonc1C(=O)N[C@@H](COC(C)(C)C)c1cn2ncc(C(NC(=O)CCC(F)(F)F)C3CC3)cc2n1 (single isomer, unassigned) [Example 315, N—((R)-2-(tert-Butoxy)-1-(7-((S*)-cyclopropyl(4,4,4-trifluorobutanamido)methyl)imidazo[1,2-b]pyridazin-2-yl)ethyl)-4-methyl-1,2,5-oxadiazole-3-carboxamide] | 13000 nM | > 20000 nM | 
